For experiment [1], the system named is primary human AML blast cells. Kind of experiment: Loss of viability of primary patient AML cells, trypan-blue exclusion. It counts as cell-based. Particulars: one table row per patient (1-6). The procedure:
To further test the combination of LBH589+5-aza to induce cell death in AML, the U937 AML cell lines and fresh leukemia blast cells from AML patients are incubated with the compounds either as a combination or as single agents. Cell death is either monitored by cells staining for Annexin V (signifying apoptosis) or by counting live cells by trypan-blue exclusion. […] Importantly, no antagonism is observed when the two compounds are combined. […] Trypan-blue exclusion is used to count number of viable cells and percentage of dead cells for each treatment calculated and tabulated.

The next experiment concerns AML cell line U937. Kind of experiment: Western immunoblotting of U937 cells for acetylated tubulin, p21 and PARP. Particulars: 2 μM 5-aza, 10 nM LBH589 or combination, 24 hours, western blot (FIG. 1). It counts as cell-based. In general terms: A western blot detects proteins with antibodies after separation by electrophoresis.

Several values for one entry are separate records, joined by “and”; a condition that tells them apart may be missing. Identical values can stand only once.

Protocol for AML cell line U937: The AML cell line U937 is incubated with LBH589 or 5-aza as single agents or in combination.
U937 cells are treated with 2 μM 5-aza, 10 nM LBH589 or with a combination of 5-aza+LBH589 for 24 hours. Cells are lysed, proteins separated by SDS-PAGE and western immunoblotting analysis done with antibodies against acetylated tubulin, p21, PARP and β-actin (control for loading).

As for `Nc1ncn([C@@H]2O[C@H](CO)[C@@H](O)[C@H]2O)c(=O)n1` [5-aza, 5-azacytidine], the “% Cell Death” value in experiment [1] (Aza 1 μM, listed as Aza) is 8.6% and 16.5% and 25.9% and 13.1% and 15% and 19.3%. The “% Cell Death” value in experiment [1] (Aza 2 μM, listed as Aza) is 10.1% and 19.3% and 28.5% and 15.9% and 22.6% and 40.4%. Further, in the experiment with AML cell line U937, the “PARP cleavage as a measure of apoptotic cell death” value is on record as “only a slight PARP cleavage”, the acetylation of alpha-tubulin entry was “not” and the “expression of the cell growth inhibitor p21” value is “induces the expression”.

`Cc1[nH]c2ccccc2c1CCNCc1ccc(/C=C/C(=O)NO)cc1` [LBH589, N-hydroxy-3-[4-[[[2-(2-methyl-1H-indol-3-yl)-ethyl]-amino]methyl]phenyl]-2E-2-propenamide]: the “% Cell Death” value in experiment [1] (LBH-589 10 nM) is 15.4% and 22.3% and 41.9% and 19.5% and 73.7% and 35.9%. Further, the “% Cell Death” value in experiment [1] (LBH-589 50 nM) was 45.1% and 34.2% and 62.6% and 41.6% and 85.6% and 48.9%. Moreover, in the experiment with AML cell line U937, the “PARP cleavage as a measure of apoptotic cell death” value is “only a slight PARP cleavage”, the acetylation of alpha-tubulin result was “induces increased acetylation” and the “expression of the cell growth inhibitor p21” value is given as “induces the expression”.
